Measurements published in the supplement of paper PMC10307832.

What was measured:
Assay in all cases: relative viability (nuclei count vs DMSO), 5 days (fraction); higher = more cells survive
[1] = compound: CCN1CCC(CC1)N2C=C(N=N2)CNC3=CC4=C(C(=CN=C4C(=C3)Cl)C#N)NC5=CC(=C(C=C5)F)Cl [KIN001-266] + O=C(c1cc(Cc2n[nH]c(=O)c3ccccc23)ccc1F)N1CCN(C(=O)C2CC2)CC1 [Olaparib] (partner 8 µM)
Method in brief: (§1)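 After 5 days of treatment, lung cancer cells in 1536-well plates were fixed and stained in a single step (final 0.05% Triton X-100, 1% formaldehyde, 1 ug/ml Hoechst) and their nuclei counted on 4× images. Treatment had been applied by pin tool the day after seeding as one drug alone or as a fixed anchor-drug dose with five library-drug doses (not always all listed) in √10 steps. Relative viability is the nuclei count of treated wells divided by that of vehicle wells, and values are medians of duplicate plates.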

[2] = compound: CCN1CCC(CC1)N2C=C(N=N2)CNC3=CC4=C(C(=CN=C4C(=C3)Cl)C#N)NC5=CC(=C(C=C5)F)Cl [KIN001-266] + C[C@]1(O)C[C@@H](c2nc(-c3ccc4ccc(-c5ccccc5)nc4c3)c3c(N)nccn32)C1 [Linsitinib] (partner 1 µM)
Method in brief: as §1

[3] = compound: CCN1CCC(CC1)N2C=C(N=N2)CNC3=CC4=C(C(=CN=C4C(=C3)Cl)C#N)NC5=CC(=C(C=C5)F)Cl [KIN001-266] + Nc1nc2[nH]cc(CCc3ccc(C(=O)N[C@@H](CCC(=O)O)C(=O)O)cc3)c2c(=O)[nH]1 [Pemetrexed] (partner 0.2 µM)
Method in brief: as §1

[4] = compound: CCN1CCC(CC1)N2C=C(N=N2)CNC3=CC4=C(C(=CN=C4C(=C3)Cl)C#N)NC5=CC(=C(C=C5)F)Cl [KIN001-266] + O=C(CCCCCCC(=O)Nc1ccccc1)NO [Vorinostat] (partner 1 µM)
Method in brief: as §1

| Cell Line | relative viability ([1]; first compound 0.08 µM) | relative viability ([1]; first compound 0.253 µM) | relative viability ([1]; first compound 0.8 µM) | relative viability ([1]; first compound 2.53 µM) | relative viability ([1]; first compound 8 µM) | relative viability ([2]; first compound 0.08 µM) | relative viability ([2]; first compound 0.253 µM) | relative viability ([2]; first compound 0.8 µM) | relative viability ([2]; first compound 2.53 µM) | relative viability ([2]; first compound 8 µM) | relative viability ([3]; first compound 0.08 µM) | relative viability ([3]; first compound 0.253 µM) | relative viability ([3]; first compound 0.8 µM) | relative viability ([3]; first compound 2.53 µM) | relative viability ([3]; first compound 8 µM) | relative viability ([4]; first compound 0.08 µM) | relative viability ([4]; first compound 0.253 µM) | relative viability ([4]; first compound 0.8 µM) | relative viability ([4]; first compound 2.53 µM) | relative viability ([4]; first compound 8 µM) |
| --- | --- | --- | --- | --- | --- | --- | --- | --- | --- | --- | --- | --- | --- | --- | --- | --- | --- | --- | --- | --- |
| 201T | 0.822 | 0.852 | 0.809 | 0.855 | 0.816 | 1.08 | 1.04 | 0.984 | 1.01 | 1.15 | 0.342 | 0.375 | 0.352 | 0.34 | 0.319 | 1.02 | 0.969 | 0.876 | 0.988 | 0.934 |
| A-427 | 0.723 | 0.789 | 0.726 | 0.615 | 0.639 | 1.12 | 1.2 | 1.09 | 1.06 | 1.13 | 1.01 | 0.96 | 1.04 | 0.881 | 0.95 | 0.885 | 0.88 | 0.883 | 0.82 | 0.856 |
| ABC-1 | 0.737 | 0.583 | 0.767 | 0.795 | 0.863 | 1.1 | 0.788 | 0.945 | 0.76 | 0.713 | – | – | – | – | – | 1.36 | 1.24 | 1.26 | 1.09 | 0.987 |
| BEN | 1 | 0.988 | 1.12 | 1.17 | 0.977 | 0.892 | 0.919 | 0.914 | 1.04 | 0.978 | 0.982 | 0.776 | 0.919 | 0.68 | 0.744 | 0.607 | 0.531 | 0.601 | 0.559 | 0.635 |
| CAL-12T | 0.785 | 0.732 | 0.663 | 0.652 | 0.633 | 0.802 | 0.811 | 0.774 | 0.863 | 0.493 | 1.25 | 1.1 | 1.15 | 1.2 | 1.15 | 0.728 | 0.662 | 0.903 | 0.73 | 0.895 |
| COR-L23 | 0.372 | 0.367 | 0.345 | 0.293 | 0.294 | 0.958 | 0.918 | 0.928 | 0.88 | 0.601 | 0.204 | 0.219 | 0.206 | 0.191 | 0.209 | 0.397 | 0.46 | 0.62 | 0.422 | 0.237 |
| COR-L 105 | 0.729 | 0.619 | 0.651 | 0.521 | 0.566 | 0.974 | 0.932 | 0.991 | 0.93 | 0.846 | 1.13 | 1.06 | 0.883 | 1.11 | 1.07 | 0.796 | 1.07 | 0.899 | 0.594 | 0.814 |
| Calu-6 | 0.649 | 0.653 | 0.587 | 0.542 | 0.365 | 1.03 | 0.978 | 0.955 | 0.943 | 0.836 | – | – | – | – | – | – | – | – | – | – |
| ChaGo-K-1 | 0.401 | 0.422 | 0.301 | 0.282 | 0.227 | – | – | – | – | – | 0.264 | 0.268 | 0.255 | 0.25 | 0.237 | 0.792 | 0.718 | 0.737 | 0.645 | 0.535 |
| EBC-1 | 0.76 | 0.72 | 0.635 | 0.649 | 0.511 | 1.04 | 0.896 | 0.839 | 1.01 | 0.726 | – | – | – | – | – | – | – | – | – | – |
| EKVX | 0.914 | 0.899 | 0.844 | 0.78 | 0.865 | 1.01 | 0.956 | 1.04 | 0.963 | 1.04 | 0.295 | 0.432 | 0.406 | 0.391 | 0.375 | 0.663 | 0.671 | 0.757 | 0.735 | 0.678 |
| EMC-BAC-2 | 0.546 | 0.519 | 0.449 | 0.437 | 0.46 | 0.781 | 0.792 | 0.877 | 0.86 | 0.862 | 0.505 | 0.504 | 0.449 | 0.462 | 0.529 | 0.53 | 0.614 | 0.564 | 0.505 | 0.849 |
| EPLC-272H | 0.885 | 0.869 | 1.08 | 0.643 | 0.273 | 1.26 | 1.34 | 0.842 | 1.15 | 1.16 | 0.373 | 0.364 | 0.374 | 0.319 | 0.323 | 0.417 | 0.662 | 0.621 | 0.429 | 0.384 |
| H3255 | 0.583 | 0.55 | 0.565 | 0.517 | 0.455 | 0.841 | 1.03 | 0.884 | 0.841 | 0.713 | 0.55 | 0.585 | 0.5 | 0.506 | 0.505 | 0.882 | 0.839 | 0.792 | 0.721 | 0.836 |
| HARA | 0.798 | 0.762 | 0.806 | 0.559 | 0.467 | 0.863 | 0.851 | 0.925 | 0.935 | 0.735 | 0.289 | 0.276 | 0.256 | 0.242 | 0.206 | 0.544 | 0.603 | 0.481 | 0.462 | 0.502 |
| HCC-15 | 0.743 | 0.747 | 0.64 | 0.651 | 0.511 | 0.812 | 0.886 | 0.761 | 0.734 | 0.7 | 0.234 | 0.222 | 0.221 | 0.206 | 0.225 | 0.871 | 0.932 | 0.842 | 0.747 | 0.616 |
| HCC-44 | 0.994 | 0.959 | 0.944 | 0.884 | 0.993 | 0.669 | 0.678 | 0.687 | 0.742 | 0.622 | 0.678 | 0.651 | 0.607 | 0.592 | 0.642 | 1.15 | 1.09 | 1.04 | 1.14 | 1.11 |
